From paper PMC4579270, “Identification and Characterization of an Irreversible Inhibitor of CDK2” (Chemistry & Biology, 2015)
“Also recorded” adds a separate entry of the source.

Columns and labels:
CDK2-Cyclin A = CDK2-Cyclin A (Homo sapiens, UniProt P24941); experiment: Kinase assay against GST-Rb after overnight incubation and dialysis; type: biochemical; design: made in house; host or cells: Escherichia coli (CDK2 co-expressed with S. cerevisiae CAK1); details: wild-type CDK2/cyclin A, overnight with 1 mM inhibitor, dialysed 8 h
Protocol: To confirm the results of the ESI-MS and SPR analysis, CDK2/cyclin A was incubated with either NU6300 or NU6310, then the samples and appropriate controls were dialyzed. The resulting CDK2/cyclin A activity was analyzed in an in vitro kinase assay against a C-terminal fragment of the retinoblastoma protein Rb. After an overnight incubation in the presence of NU6300, CDK2 activity was not recovered after dialysis (Figure 2C). […] The activity of NU6300 was also characterized in an alternative kinase assay format (ADP-Glo;^, Promega) in which covalent inhibition of CDK2/cyclin A was allowed to proceed in a pre-incubation phase and was assessed in a subsequent activity assay, where enzyme and inhibitor were diluted such that the inhibitor was present at 20-fold below its IC50 value. The samples and appropriate controls were incubated for 0, 10, 30, 60, and 120 min, prior to addition of ATP and peptide substrate (sequence HHASPRK, single-letter amino acid code), to initiate the kinase reaction. […]
(§1) CDK2/cyclin A (200 µM) was incubated overnight with 1 mM inhibitor or DMSO, and then dialysed for 8 h with regular replacement of dialysis buffer into HEPES-buffered saline (50 mM HEPES, pH 7.5, 250 mM NaCl, 0.02% MTG). […] Reactions were stopped by addition of SDS-PAGE loading buffer and analyzed by SDS-PAGE. […]

CDK2^K89V/cyclin A = target: T1, CDK2^K89V/cyclin A (Homo sapiens, UniProt P24941, K89V); experiment: Bandshift kinase assay after incubation and dialysis, mutant; type: biochemical
T1 construct: GST (N, cleaved yes); made in house; host or cells: Escherichia coli; phosphorylated in vitro by GST-CAK
Protocol: The bandshift experiment was repeated after incubating CDK2^K88E/cyclin A and CDK2^K89V/cyclin A with NU6300, NU6310, or DMSO followed by dialysis to remove unbound inhibitor (Figure S2G).
Figure S2, Related to Figure 3. Identification of the site of CDK2 modification by NU6300. (A-G) Single site CDK2 mutants CDK2D86A, CDK2K88E, and CDK2K89V identify the site of CDK2 modification by NU6300. These mutations change the CDK2 sequence to that of CDK7 and are known not to disrupt the CDK2 fold. Mass spectra of CDK2 mutants: […]
(G) Protein kinase activity of authentic CDK2 and single site CDK2 mutants following incubation with NU6300 or NU6310. Samples were taken at the indicated number of minutes after initiation of the reaction. Note that compared to authentic CDK2, the single site Lys88 and Lys89 mutants have a slower rate of reaction (Compare LHS panels). This drop in activity was expected because whereas the wild type protein was produced by co-expression with S. cerevisiae […]
the mutant proteins were activated by S. cerevisiae CAK1 phosphorylation in vitro– a relatively inefficient process as judged from the results of ESI-MS (Table S1). (H) NU6300 […]
NU6300 carbon atoms are coloured green. Rb, retinoblastoma protein, Phospho-Rb, […]
Protein expression and purification
Site-directed mutagenesis of CDK2 was performed using the QuikChange II kit (Stratagene) following the manufacturer’s instructions and verified by DNA sequencing.
Wild-type CDK2 phosphorylated at Thr160, untagged human cyclin A2 (residues 174-432), S. cerevisiae GST–CAK, GST–3C-protease and GST–pRb (residues 792–928) were expressed and purified as previously described (Brown et al., 1999a; Brown et al., 1999b; Welburn and Endicott, 2005). […]
as §1

| SMILES | CDK2 activity against Rb after incubation with inhibitor and dialysis (CDK2-Cyclin A) | CDK2 activity against Rb after incubation with inhibitor and dialysis (CDK2^K89V/cyclin A) |
| --- | --- | --- |
| CCS(=O)(=O)c1ccc(Nc2nc(OCC3CCCCC3)c3nc[nH]c3n2)cc1 [NU6310, 6-(cyclohexylmethoxy)-N-(4-(ethylsulfonyl)phenyl)-9H-purin-2-amine] | could phosphorylate Rb; also recorded: recovered their activity | recovered their activity |
| C=CS(=O)(=O)c1ccc(Nc2nc(OCC3CCCCC3)c3nc[nH]c3n2)cc1 [NU6300, 6-(cyclohexylmethoxy)-N-(4-(vinylsulfonyl)phenyl)-9H-purin-2-amine] | not recovered; also recorded: did not | recovered activity |
